Assay results as given in US20100137344A1, “INDUCTION OF ANALGESIA IN NEUROPATHIC PAIN” (University Court of the University of Edinburgh, priority 2006, published 2010).

Columns and labels:
[1] = test system: TRPM8; experiment: Antisense knockdown of TRPM8, DRG immunoblots (TRPM8:GAPDH); format: in vivo, rat; conditions: for TRPM8:GAPDH ratio in DRG: intrathecal oligonucleotide infusion
Source text: Antisense and mis-sense oligonucleotides were 22-mers with phosphorothioate bonds at the last two positions at 5′ and 3′ ends (MWG Biotech, Ebersberg, Germany). Antisense extended from base −10 to base +12 relative to the start of the open reading frame for the rat TRPM8 gene: 5′ C*T*CGAAGGACATCTTGCCGT*G*G 3′, where * represents phosphorothioate linkages. Mis-sense was designed with 4 inversions of C/G or A/T as appropriate at residues 3, 11, 14 and 22, preserving overall G/C content. BLAST searches of both oligonucleotides indicated no significant complementarity to any known gene sequence. 14-day or 7-day osmotic minipumps (for CCI experiments or naïve electrophysiology experiments respectively—Alzet Minipump, models 2002, 2001; Charles River, UK) containing oligonucleotides (1 μg/μl in sterile saline) were connected to canulae inserted under the dura of the spinal cord to level L5/6 and produced a predicted infusion rate of 0.5 μl/h. CCI surgery was performed at the same time as minipump implantation. Sensory tests were carried out to assess the time-course of behavioural sensitisation in animals which had also undergone a CCI injury. Icilin was applied topically rather than intrathecally so as to prevent any interference with the infusion canula. […]
Ipsilateral or contralateral L4-L6 dorsal root ganglia (DRG) were taken from CCI animals (n=6), and from […]. […] Blots were incubated with rabbit polyclonal antibodies to TRPM8 (either an antibody raised against TRPM8 residues 278-292 and 1090-1104 (human); 1:500; Abcam Ltd., Cambridge, UK or occasionally an antibody raised against TRPM8 residues 656-680 (rat); 1:100; Phoenix Peptides, Belmont, Calif., USA), a rabbit polyclonal antibody to TRPV1 (1:250, Chemicon International Ltd, Harrow, UK) or a mouse monoclonal antibody to glyceraldehyde-3-phosphate dehydrogenase (GAPDH, 1:750; Chemicon) and immunoreactive bands were detected by […] secondary antibody and enhanced chemiluminescence. Quantitative densitometry analysis of protein bands was performed using the ScanAnalysis (Elsevier) programme.

[2] = test system: rats with chronic constriction injury (CCI); experiment: Sensitivity to noxious cold (4° C. water) in CCI animals with oligonucleotide infusion; format: in vivo, rat; conditions: at peak, control CCI 8.1±0.5 s
Method: Thermal sensitivity was assessed by measuring paw withdrawal latency (PWL, s) in response to a noxious thermal stimulus (Hargreaves' thermal stimulator, Linton Instrumentation, Diss, UK) directed to the hindpaw mid-plantar glabrous surface. Mechanical sensitivity was recorded as the paw withdrawal threshold (PWT, mN/mm^2) to calibrated von Frey filaments (Stoelting, Ill., US), as previously described^[39]. Sensitivity to noxious cold was assessed by placing animals in a waterbath with an aluminium floor containing 1 cm deep 4° C. water and counting the time the paw was held suspended over a 20 s period.
Antisense and mis-sense oligonucleotides were 22-mers with phosphorothioate bonds at the last two positions at 5′ and 3′ ends (MWG Biotech, Ebersberg, Germany). Antisense extended from base −10 to base +12 relative to the start of the open reading frame for the rat TRPM8 gene: 5′ C*T*CGAAGGACATCTTGCCGT*G*G 3′, where * represents phosphorothioate linkages. Mis-sense was designed with 4 inversions of C/G or A/T as appropriate at residues 3, 11, 14 and 22, preserving overall G/C content. BLAST searches of both oligonucleotides indicated no significant complementarity to any known gene sequence. […]

5′ C*T*CGAAGGACATCTTGCCGT*G*G 3′ (antisense CTCGAAGGACATCTTGCCGTGG; linkages s2 o17 s2 (s phosphorothioate, o phosphodiester), sugars by position and methylation of C not given here) [TRPM8 antisense, 22-mer with phosphorothioate bonds, base −10 to +12 of rat TRPM8 open reading frame]
TRPM8:GAPDH ratio in DRG ([1]; contralateral to CCI): 14.9±2.1% | TRPM8:GAPDH ratio in DRG ([1]; ipsilateral to CCI): 19.8±2.2% | knockdown of the 128 kDa TRPM8 band in DRG ([1]; naïve rats, intrathecal delivery over 5 days): almost complete knockdown | elevation of the paw ipsilateral to nerve injury out of 4° C. water [2]: 7.6 ± 0.6 s
